Reference: patent US8399681B2, “Substituted aminothiazolone indazoles as estrogen related receptor-alpha modulators” (Janssen Pharmaceutica NV, priority 2009, dated 2013)

Each compound was assayed against T1, ERR1 (also known as ERR-α or ERR-1) (Homo sapiens, UniProt P11474) (assay: TR-FRET assay (disruption of co-activator peptide binding)). Conditions: 6His-tagged ERR1 LBD, GST-hSRC2 co-activator polypeptide; average of 3 independent experiments.
T1 sequence (P11474 193-421 limits assumed): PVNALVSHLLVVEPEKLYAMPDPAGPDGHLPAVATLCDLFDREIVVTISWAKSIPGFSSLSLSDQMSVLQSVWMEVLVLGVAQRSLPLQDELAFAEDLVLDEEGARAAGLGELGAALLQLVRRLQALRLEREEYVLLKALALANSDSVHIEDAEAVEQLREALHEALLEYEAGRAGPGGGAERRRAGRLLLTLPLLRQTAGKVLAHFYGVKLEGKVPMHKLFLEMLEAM
Format: biochemical
Procedure, shortened: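 His6-ERR1 LBD (6 nM) with GST-SRC-2 peptide (6 nM), anti-GST Eu cryptate (30 nM) and anti-His XL665 (7.5 nM) in Tris pH 8/KCl/DTT/BSA buffer, equilibrated 4-18 h at 25 °C. Ex 340, em 615/665 nm; hyperbolic dose-response fit, mean of 3 experiments.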

Row | Compound | EC50
1 | CN1CCN(C2=NC(=O)/C(=C/c3ccc4c(cnn4Cc4ccc(C(F)(F)F)cc4C(F)(F)F)c3)S2)CC1CCO (stereo not drawn) [Example 168, 5-[1-(2,4-Bis-trifluoromethyl-benzyl)-1H-indazol-5-ylmethylene]-2-[3-(2-hydroxy-ethyl)-4-methyl-piperazin-1-yl]-thiazol-4-one] | 9 nM
2 | O=C1N=C(N2CCn3cccc3C2)S/C1=C\c1ccc2c(cnn2Cc2ccc(C(F)(F)F)cc2C(F)(F)F)c1 [Example 169, 5-[1-(2,4-Bis-trifluoromethyl-benzyl)-1H-indazol-5-ylmethylene]-2-(3,4-dihydro-1H-pyrrolo[1,2-a]pyrazin-2-yl)-thiazol-4-one] | 225 nM
3 | CC1C(=O)N(C)CCN1C1=NC(=O)/C(=C/c2ccc3c(cnn3Cc3ccc(C(F)(F)F)cc3C(F)(F)F)c2)S1 (stereo not drawn) [Example 170, 4-{5-[1-(2,4-Bis-trifluoromethyl-benzyl)-1H-indazol-5-ylmethylene]-4-oxo-4,5-dihydro-thiazol-2-yl}-1,3-dimethyl-piperazin-2-one] | 30 nM
4 | CN(C)CC1CN(C2=NC(=O)/C(=C/c3ccc4c(cnn4Cc4ccc(C(F)(F)F)cc4C(F)(F)F)c3)S2)CCO1 (stereo not drawn) [Example 171, 5-[1-(2,4-Bis-trifluoromethyl-benzyl)-1H-indazol-5-ylmethylene]-2-(2-dimethylaminomethyl-morpholin-4-yl)-thiazol-4-one] | 38 nM
5 | O=C1N=C(N2CCO[C@@H](CO)C2)S/C1=C\c1ccc2c(cnn2Cc2ccc(C(F)(F)F)cc2C(F)(F)F)c1 [Example 172, 5-[1-(2,4-Bis-trifluoromethyl-benzyl)-1H-indazol-5-ylmethylene]-2(R)-(2-hydroxymethyl-morpholin-4-yl)-thiazol-4-one] | 14 nM
6 | O=C1N=C(N2CCC(C(=O)NS(=O)(=O)N3CCCC3)CC2)S/C1=C\c1ccc2c(cnn2Cc2ccc(C(F)(F)F)cc2C(F)(F)F)c1 [Example 173, Pyrrolidine-1-sulfonic acid (1-{5-[1-(2,4-bis-trifluoromethyl-benzyl)-1H-indazol-5-ylmethylene]-4-oxo-4,5-dihydro-thiazol-2-yl}-piperidine-4-carbonyl)-amide] | 71 nM
7 | O=C1N=C(N2CCC(C(=O)NS(=O)(=O)N3CCCC3)CC2)S/C1=C\c1ccc2c(cnn2Cc2ccc(Cl)cc2C(F)(F)F)c1 [Example 174, Pyrrolidine-1-sulfonic acid (1-{5-[1-(4-chloro-2-trifluoromethyl-benzyl)-1H-indazol-5-ylmethylene]-4-oxo-4,5-dihydro-thiazol-2-yl}-piperidine-4-carbonyl)-amide] | 58.1 nM
8 | O=C1N=C(N2CCO[C@H](CO)C2)S/C1=C\c1ccc2c(c1)c(I)nn2Cc1ccc(C(F)(F)F)cc1C(F)(F)F [Example 175, 5-[1-(2,4-Bis-trifluoromethyl-benzyl)-3-iodo-1H-indazol-5-ylmethylene]-2(S)-(2-hydroxymethyl-morpholin-4-yl)-thiazol-4-one] | 5 nM
9 | O=C1N=C(N2CCC(C(=O)O)CC2)S/C1=C\c1ccc2c(cnn2Cc2ccc(F)cc2C(F)(F)F)c1 [Example 176, 1-{5-[1-(4-Fluoro-2-trifluoromethyl-benzyl)-1H-indazol-5-ylmethylene]-4-oxo-4,5-dihydro-thiazol-2-yl}-piperidine-4-carboxylic acid] | 139 nM
10 | O=C1N=C(N2CCO[C@H](CO)C2)S/C1=C\c1ccc2c(cnn2Cc2ccc(F)cc2C(F)(F)F)c1 [Example 177, 5-[1-(4-Fluoro-2-trifluoromethyl-benzyl)-1H-indazol-5-ylmethylene]-2-((2S)-2-hydroxymethyl-morpholin-4-yl)-thiazol-4-one] | 55 nM
11 | O=C1N=C(N2CCN[C@@H](CO)C2)S/C1=C\c1ccc2c(cnn2Cc2ccc(F)cc2C(F)(F)F)c1 [Example 178, 5-[1-(4-Fluoro-2-trifluoromethyl-benzyl)-1H-indazol-5-ylmethylene]-2-((3R)-3-hydroxymethyl-piperazin-1-yl)-thiazol-4-one] | 52 nM
12 | O=C1N=C(N2CCNC3(CC3)C2)S/C1=C\c1ccc2c(cnn2Cc2ccc(C(F)(F)F)cc2C(F)(F)F)c1 [Example 179, 5-[1-(2,4-Bis-trifluoromethyl-benzyl)-1H-indazol-5-ylmethylene]-2-(4,7-diaza-spiro[2.5]oct-7-yl)-thiazol-4-one] | 17 nM
13 | Cc1nn(Cc2ccc(C(F)(F)F)cc2C(F)(F)F)c2ccc(/C=C3\SC(N4CCO[C@H](CO)C4)=NC3=O)cc12 [Example 180, 5-[1-(2,4-Bis-trifluoromethyl-benzyl)-3-methyl-1H-indazol-5-ylmethylene]-2-(2-(S)-hydroxymethyl-morpholin-4-yl)-thiazol-4-one] | 21 nM
14 | Cc1nn(Cc2ccc(Cl)cc2C(F)(F)F)c2ccc(/C=C3\SC(N4CCO[C@H](CO)C4)=NC3=O)cc12 [Example 181, 5-[1-(4-Chloro-2-trifluoromethyl-benzyl)-3-methyl-1H-indazol-5-ylmethylene]-2-(2-(S)-hydroxymethyl-morpholin-4-yl)-thiazol-4-one] | 16 nM
15 | Cc1nn(Cc2ccc(C(F)(F)F)cc2C(F)(F)F)c2ccc(/C=C3\SC(N4CCN[C@@H](CO)C4)=NC3=O)cc12 [Example 182, 5-[1-(2,4-Bis-trifluoromethyl-benzyl)-3-methyl-1H-indazol-5-ylmethylene]-2-(3-(R)-hydroxymethyl-piperazin-1-yl)-thiazol-4-one] | 10.8 nM
16 | Cc1nn(Cc2ccc(Cl)cc2C(F)(F)F)c2ccc(/C=C3\SC(N4CCN[C@@H](CO)C4)=NC3=O)cc12 [Example 183, 5-[1-(4-Chloro-2-trifluoromethyl-benzyl)-3-methyl-1H-indazol-5-ylmethylene]-2-(3-(R)-hydroxymethyl-piperazin-1-yl)-thiazol-4-one] | 4.9 nM
17 | O=C1N=C(N2CCO[C@H](CO)C2)S/C1=C\c1ccc2c(c1)c(Cl)nn2Cc1ccc(C(F)(F)F)cc1C(F)(F)F [Example 184, 5-[1-(2,4-Bis-trifluoromethyl-benzyl)-3-chloro-1H-indazol-5-ylmethylene]-2-(2-(S)-hydroxymethyl-morpholin-4-yl)-thiazol-4-one] | 3 nM
18 | O=C1N=C(N2CCO[C@H](CO)C2)S/C1=C\c1ccc2c(c1)c(Cl)nn2Cc1ccc(Cl)cc1C(F)(F)F [Example 185, 5-[3-Chloro-1-(4-chloro-2-trifluoromethyl-benzyl)-1H-indazol-5-ylmethylene]-2-(2-(S)-hydroxymethyl-morpholin-4-yl)-thiazol-4-one] | 3 nM
19 | O=C1N=C(N2CCN[C@@H](CO)C2)S/C1=C\c1ccc2c(c1)c(Cl)nn2Cc1ccc(Cl)cc1C(F)(F)F [Example 187, 5-[3-Chloro-1-(4-chloro-2-trifluoromethyl-benzyl)-1H-indazol-5-ylmethylene]-2-(3-(R)-hydroxymethyl-piperazin-1-yl)-thiazol-4-one] | 12.7 nM
20 | O=C1N=C(N2C[C@@H](F)C[C@H]2C(=O)O)S/C1=C\c1ccc2c(cnn2Cc2ccc(Cl)cc2C(F)(F)F)c1 [Example 189, 1-[5-({1-[4-Chloro-2-(trifluoromethyl)benzyl]-1H-indazol-5-yl}methylidene)-4-oxo-4,5-dihydro-1,3-thiazol-2-yl]-4-(S)-fluoro-L-proline] | 24 nM
21 | COC(=O)C1CCN(C2=NC(=O)/C(=C/c3ccc4c(cnn4Cc4ccc(C(F)(F)F)cc4C(F)(F)F)c3)S2)CC1 [Example 190, Methyl 1-[5-({1-[2,4-bis(trifluoromethyl)benzyl]-1H-indazol-5-yl}methylidene)-4-oxo-4,5-dihydro-1,3-thiazol-2-yl]piperidine-4-carboxylate] | 53 nM
22 | O=C1N=C(N2CCC(C(=O)O)CC2)S/C1=C\c1ccc2c(c1)c(I)nn2Cc1ccc(C(F)(F)F)cc1C(F)(F)F [Example 191, 1-[5-({1-[2,4-Bis(trifluoromethyl)benzyl]-3-iodo-1H-indazol-5-yl}methylidene)-4-oxo-4,5-dihydro-1,3-thiazol-2-yl]piperidine-4-carboxylic acid] | 3.6 nM
23 | C[C@@H]1CN(C)CCN1C1=NC(=O)/C(=C/c2ccc3c(cnn3Cc3ccc(C(F)(F)F)cc3C(F)(F)F)c2)S1 [Example 192, 5-({1-[2,4-Bis(trifluoromethyl)benzyl]-1H-indazol-5-yl}methylidene)-2-(2-(R),4-dimethylpiperazin-1-yl)-1,3-thiazol-4(5H)-one] | 16 nM
24 | C[C@@H]1CN(C)CCN1C1=NC(=O)/C(=C/c2ccc3c(cnn3Cc3ccc(Cl)cc3C(F)(F)F)c2)S1 [Example 193, 5-({1-[4-Chloro-2-(trifluoromethyl)benzyl]-1H-indazol-5-yl}methylidene)-2-(2-(R),4-dimethylpiperazin-1-yl)-1,3-thiazol-4(5H)-one] | 11 nM
25 | O=C1N=C(N2CCOC[C@@H]2C(=O)O)S/C1=C\c1ccc2c(cnn2Cc2ccc(Cl)cc2C(F)(F)F)c1 [Example 194, 4-[5-({1-[4-Chloro-2-(trifluoromethyl)benzyl]-1H-indazol-5-yl}methylidene)-4-oxo-4,5-dihydro-1,3-thiazol-2-yl]morpholine-3-(R)-carboxylic acid] | 23.5 nM
26 | CN1CCN(C2=NC(=O)/C(=C/c3ccc4c(cnn4Cc4ccc(C(F)(F)F)cc4C(F)(F)F)c3)S2)C[C@@H]1CO [Example 195, 5-({1-[2,4-Bis(trifluoromethyl)benzyl]-1H-indazol-5-yl}methylidene)-2-[3-(R)-(hydroxymethyl)-4-methylpiperazin-1-yl]-1,3-thiazol-4(5H)-one] | 20 nM
27 | CN1CCN(C2=NC(=O)/C(=C/c3ccc4c(cnn4Cc4ccc(Cl)cc4C(F)(F)F)c3)S2)C[C@@H]1CO [Example 196, 5-({1-[4-Chloro-2-(trifluoromethyl)benzyl]-1H-indazol-5-yl}methylidene)-2-[3-(R)-(hydroxymethyl)-4-methylpiperazin-1-yl]-1,3-thiazol-4(5H)-one] | 16 nM
